Laboratory results: patent publication US20240115672A1, “TREATMENT OF AN IOP CONDITION” (THE RESEARCH FOUNDATION FOR THE STATE UNIVERSITY OF NEW YORK, priority 2021, published 2024)

Columns and labels:
[1] = system: Mmp-2, Mmp-9, Mmp-13 and Plat mRNA; experiment: Mmp and Plat expression in protein treated C57BL/6J eyes without steroids (Example 15); assay type: in vivo, mouse; settings: non-steroid treated C57BL/6 eyes; group means versus BSA; p>0.05
sheep = experiment: Sheep given tPA or arginine concurrently with prednisolone (Example 3 Protocol 2, Example 4); assay type: in vivo; settings: 11 days
Protocol: Protocol 2. In a second set of experiments, arginine was added to the BSS vehicle administered to the left eye to control for the relatively high concentration of the amino acid in the commercially available tPA lyophilisate. In these experiments all right eyes received 0.1 mg tPA, which concomitantly delivered 4.23 mg of arginine into the vitreous, and the left eye received this same amount of arginine, absent the tPA. On Day 1, prednisolone treatments were also begun simultaneously on both eyes.
Methods. In this experiment, the inventor sought to detect the effects of tPA treatment on prevention of steroid-induced IOP elevation. In 4 sheep tPA was injected in one eye (100 μg) and they were started on prednisolone acetate three times a day in both eyes. Animals were monitored for 11 days on continuous treatment.

[2] = system: Mmp-2, Mmp-9, Mmp-13 mRNA in angle ring tissues; experiment: Mmp expression in Tg-MYOCY437H angle ring tissues (Example 19); assay type: in vivo, mouse
Protocol: Eyes were flash frozen in liquid nitrogen after outflow facility determination and subsequently dissected on ice to obtain the angle ring tissues containing the TM, as previously described (Kumar, Shah et al. 2013). Dissected TM tissues were immersed in RNAlater solution (Invitrogen, Waltham, MA, USA) and then snap-frozen and stored at −80° C. until RNA extraction. Tissue collected was pooled (four eyes) and homogenized in TRIzol reagent for RNA isolation, per manufacturer's instructions (Life Technologies, Carlsbad, CA, USA). RNA concentration was determined with a Nanodrop ND-1000 Spectrophotometer (Thermo Scientific, Wilmington, DE, USA). cDNA was synthesized by using High-Capacity cDNA
Reverse Transcription Kit (Applied Biosystems, Waltham, MA, USA) according to manufacturer's protocol. Quantitative real-time PCR (qRT-PCR) was performed by using Green-2-Go qPCR Mastermix-ROX (Bio Basic, Amherst, NY, USA) on a QuantStudio 6 Flex thermal cycler (Applied Biosystems, Carlsbad, CA, USA). mRNA expression of Plat, Plait, Pai-1, Mmp-2, Mmp-9, and Mmp-13 in angle ring tissues was determined. Primers were designed by using Primer-BLAST (haps://www.ncbi.nlm.nih.gov/tools/primer-blast/index.cgi?LINK_LOC=BlastHome; in the public domain); primer sequences are listed in Table 2. Primer specificity was confirmed by agarose gel electrophoresis and multiple-sized amplification products were absent on inspection of melting curves. Target mRNA expression values were normalized to the expression levels of Rps11 (ribosomal protein S11). The relative fold change was calculated by using the ΔΔCt method (Hu, Wang et al. 2015). Outliers identified via the Thompson Tau test were removed from analysis.

[3] = system: Mmp-2, Mmp-9, Mmp-13 mRNA in angle ring tissues; experiment: Mmp expression in TA and protein treated C57BL/6J eyes (Example 13); assay type: in vivo, mouse; settings: TA + protein; compared to BSA treated controls; p<0.0001
[4] = intravitreal; toxicity attributed to arginine in the commercial preparations; cited from earlier work
[5] = system: MMP-2, MMP-9, MMP-13 expression in HTM cells; experiment: MMP expression in HTM cells (Examples 17, 18); assay type: cell-based, human; settings: PA treated HTM cells; p<0.0001
[6] = system: sheep of the Coriedale breed; experiment: IOP in prednisolone-treated sheep after tPA injection into the anterior chamber (Example 9); assay type: in vivo; settings: 0.0001 μg into the AC; IOP 23.0 mm Hg at 6:00 and 30:00 hrs after injection
Protocol: Methods. Lyophilized IPA, obtained as Acetilyse® from Boehringer Ingelheim S.A. (Buenos Aires) containing arginine. was used. Five sheep of the Coriedale breed were selected. Initially all eyes received instillation of 1% prednisolone 3 times/day for 10 days to elevate their IOP from 10 mm Hg to about 23 mm Hg. Then, 0.0001 μg was injected into one of the eyes and its effect was followed for up to 55:00 hrs while the instillation of prednisolone continued in both eyes. The same protocol was implemented for the 0.001 and 0.01 μg amounts (after extended washout) in the contra lateral eyes. Arginine, which is associated with 0.01 ug tPA, was injected alone and had no effect.

[7] = system: sheep of the Corriedale breed; experiment: IOP in prednisolone-treated sheep after intravitreal tPA (Example 3, Protocol 1); assay type: in vivo
Protocol: Methods. The inventors used recombinant human tissue plasminogen activator (rtPA) ([…]; Boehringer Ingelheim SA, Buenos Aires, Argentina) in two different protocols.
Protocol 1. 8 sheep of the Corriedale breed were treated with prednisolone acetate three times a day in both eyes, leading to elevated IOP. After one week, the animals received intravitreal injections of human recombinant tPA (100, 200, 500 and 1000 μg, two animals each) dissolved in balanced salt solution (BSS) in one eye. IOP was monitored for 19 more days while the animals continued to receive treatment with prednisolone. Periodic slit lamp examination was also performed.

[8] = 2 days after intravitreal protein

With “tPA: recombinant human tissue plasminogen activator (ACTILYSE; Boehringer Ingelheim), enzymatically active” the “gene expression changes in Mmp-2, Mmp-9, and Mmp-13” value [1] was “not significantly different”, the “effect on steroid-induced IOP elevation” value (sheep; 100 μg in one eye concurrent with prednisolone acetate three times a day) was “prevented IOP elevation” and the ocular findings (sheep; 100 μg tPA) was “Transient injection and corneal clouding was observed in some eyes”. For the same substance, the “Mmp-2 expression compared to BSA treated eyes” value [2, 8] was “no significant difference”, the “Mmp-9 expression compared to BSA treated eyes” value [2, 8] was “not detected” and the “Mmp-13 expression compared to BSA treated eyes” value ([2]; 2 days after intravitreal protein, p<0.01) was “significantly higher”. The “Mmp-9 expression compared to BSA treated eyes” value ([2]; 5 days treatment) was “higher”, the “Mmp-13 expression compared to BSA treated eyes” value ([2]; 5 days treatment) was “significantly higher” and the “Mmp-2 expression compared to BSA treated eyes” value ([2]; 5 days treatment, p>0.05) was “no significant difference”. For the same substance, the Mmp-2 expression [3] was “significant upregulation”, the “doses with reported retinal toxicity” value [4] was 50-100 lag and the “expression (FIG. 17C) compared to PA+BSA treated cells” value [5] was “significant upregulation”. The “effect on IOP” value [6] was “no effect”, the “dose dependence of the IOP effect” value ([7]; 100, 200, 500 and 1000 μg, p>0.05 ANOVA) was “independent of the dose” and the ocular findings ([7]; intravitreal tPA, unrelated to the dose injected) was “Transient injection and corneal clouding was observed in some eyes”. For the same substance, the “mean (±SD) IOP after tPA” value ([7]; within 24 h of intravitreal tPA, all doses tested (100-1000 μg), prednisolone continued, before 24.1 (±1.6)) was 14.1 (±1.1) mmHg.
